# Source: patent US20070020704A1, “Diaryl ureas with kinase inhibiting activity” (priority 2003, published 2007)
# Assays:
# [1] = tested on: NCI-H460 lung (mutant k-Ras) xenograft; experiment: Tumor treatment, NCI-H460 xenograft model; assay type: in vivo; details: p.o., qd×14
# Experimental: (§1) All treatments were administered p.o. on a qd×14 schedule. […] Similarly, the growth of MIA PaCa-2 tumors was inhibited 44%, 66%, and 73% at dosages of 10, 30, and 100 mg/kg/dose, respectively. The growth of NCI-H460 tumors was inhibited 27% and 56% at dosages of 10 and 30 mg/kg/dose of this Raf kinase inhibitor. The SK-OV-3 model was slightly more sensitive, generating 45%-81% tumor growth inhibitions at dosages of 3 to 100 mg/kg/dose.
# [2] = tested on: Raf Pathway phospho-ERK, Melanoma; experiment: Cellular assay Raf pathway phospho-ERK, melanoma; assay type: cell-based
# HER2 Receptor = HER2 Receptor (Homo sapiens, UniProt P04626); details: cellular assay, HER 1 & 2 Pathway
# Chain of HER2 Receptor (P04626 23-1255): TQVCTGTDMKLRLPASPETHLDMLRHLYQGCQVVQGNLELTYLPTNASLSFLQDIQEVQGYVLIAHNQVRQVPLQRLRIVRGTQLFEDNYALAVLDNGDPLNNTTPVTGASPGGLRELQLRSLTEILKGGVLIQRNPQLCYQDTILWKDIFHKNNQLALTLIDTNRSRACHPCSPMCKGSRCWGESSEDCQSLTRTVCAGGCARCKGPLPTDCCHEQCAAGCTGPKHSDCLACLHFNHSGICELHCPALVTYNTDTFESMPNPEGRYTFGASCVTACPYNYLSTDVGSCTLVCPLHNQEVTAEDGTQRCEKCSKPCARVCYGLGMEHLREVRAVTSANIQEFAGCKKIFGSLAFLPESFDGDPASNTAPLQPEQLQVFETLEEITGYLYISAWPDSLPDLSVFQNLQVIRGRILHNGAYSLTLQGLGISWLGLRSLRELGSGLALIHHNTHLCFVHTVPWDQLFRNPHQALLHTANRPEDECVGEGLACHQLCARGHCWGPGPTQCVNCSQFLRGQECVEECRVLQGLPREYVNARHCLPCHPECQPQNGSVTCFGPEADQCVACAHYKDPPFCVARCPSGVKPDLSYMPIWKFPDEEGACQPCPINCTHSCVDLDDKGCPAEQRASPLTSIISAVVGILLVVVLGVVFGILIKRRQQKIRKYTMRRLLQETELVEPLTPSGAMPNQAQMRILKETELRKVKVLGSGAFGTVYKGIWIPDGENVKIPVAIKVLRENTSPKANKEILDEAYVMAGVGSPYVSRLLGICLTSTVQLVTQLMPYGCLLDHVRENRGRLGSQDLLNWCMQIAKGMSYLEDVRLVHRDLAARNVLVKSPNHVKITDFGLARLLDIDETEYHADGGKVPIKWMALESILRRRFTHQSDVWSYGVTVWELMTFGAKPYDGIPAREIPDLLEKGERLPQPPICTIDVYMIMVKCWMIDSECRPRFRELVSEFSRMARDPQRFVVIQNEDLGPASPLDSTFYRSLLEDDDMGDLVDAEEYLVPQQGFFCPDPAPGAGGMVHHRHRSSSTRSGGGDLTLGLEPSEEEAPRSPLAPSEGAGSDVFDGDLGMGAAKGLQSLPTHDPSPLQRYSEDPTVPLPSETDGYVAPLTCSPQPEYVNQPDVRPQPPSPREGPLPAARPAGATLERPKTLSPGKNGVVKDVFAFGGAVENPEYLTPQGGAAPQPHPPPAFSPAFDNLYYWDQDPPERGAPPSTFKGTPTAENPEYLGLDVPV
# c-KIT phosphor-AKT = experiment: Cellular assay c-KIT pathway phosphor-AKT; assay type: cell-based
# phospho-ERK = experiment: Immunohistochemical staining of tumor sections with anti-pERK antibodies (melanoma biopsies pre- and post-treatment); assay type: in vivo, human; details: subject having melanoma, 600 mg BID; post- vs pre-treatment biopsy
# Text: 3. Immunohistochemical Staining of Tumor Sections with Anti-pERK Antibodies
# Activated Raf kinase phosphorylates and activates MEK (mitogen-activated protein kinase kinase), which in turn phosphorylates and activates ERK (extracellular signal-regulated kinase), which translocates to the nucleus and modifies gene expression. This pathway is often aberrantly activated in tumor cells due to the presence of activated ras, mutant BRAF, or elevation of growth factor receptors. A semi-quantitative immunohistochemical method was developed to detect phosphorylated ERK (pERK) in human tumor biopsies as a patient selection biomarker for determining whether a patient will be responsive to a compound of the present invention, and also to assess its efficacy. The antibody used was a polyclonal antibody (rabbit) that detects the phosphorylation status of p44 and p42 (phospho-p44/42 MAPK (Thr202/Tyr204)) MAP kinases (ERK1 and ERK2). The procedure was accomplished as follows:
# 1. Tumor samples were obtained from patients. Samples were embedded in paraffin and sectioned.
# 2. […]
# 20. Each tissue section was assessed using the Bioquant TCW98 image analysis system. […]
# A subject having a melanoma was treated with a compound in accordance with the present invention, and then a biopsy sample was assessed using the assay described above. […]
# [3] = tested on: MIA PaCa-2 pancreatic (mutant k-Ras) xenograft; experiment: Tumor treatment, MIA PaCa-2 xenograft model; assay type: in vivo, CB17 SCID female mice; details: p.o., qd×14
# Experimental: as §1
# HCT 116, SK-OV-3, and MIA PaCa-2 stock tumors were maintained as serial s.c. passages of fragments in CD-1 Nu/Nu female mice (HCT 116 and SK-OV-3) or CB17 SCID female mice (MIA-PaCa-2). Treatments were administered orally and were initiated against established tumors. Tumor dimensions were measured via calipers 2-3 times per week and were converted into tumor mass by the formula […], where L and W refer to the largest and smallest dimensions, respectively.
# melanoma = experiment: Response of a subject having melanoma (PET and CT scans); assay type: in vivo, human; details: 600 mg BID
# Experimental: A subject having a melanoma was treated with a compound in accordance with the present invention, and then a biopsy sample was assessed using the assay described above.
# The subject was then administered a 600 mg BID dose of the compound.
# A response to the compound was observed by comparing PET scans taken at baseline vs. the second cycle. […] This response corresponds with a decrease in the percent of nuclei expressing pERK in the post-treatment biopsy. […] The compound utilized was N-[4-chloro-3-(trifluoromethyl)phenyl]-N′-{4-[2-N-methylcarbamoyl-4-pyridyloxy]phenyl}urea.
# [4] = tested on: Raf Pathway phospho-ERK, Breast; experiment: Cellular assay Raf pathway phospho-ERK, breast (Bio-Plex phospho-ERK1/2 immunoassay); assay type: cell-based; details: Homo sapiens, inhibition of target phosphorylation in whole cells by 50%
# Experimental: A 96-well phospho-ERK (PERK) immunoassay, using laser flow cytometry platform has been established to measure inhibition of basal pERK in cell lines. MDA-MB-231 cells were plated at 50,000 cells per well in 96-well microtitre plates in complete growth media. For effects of test compounds on basal pERK1/2 inhibition, the next day after plating, MDA-MB-231 cells were transferred to DMEM with 0.1% BSA and incubated with test compounds diluted 1:3 to a final concentration of 3 μM to 12 nM in 0.1% DMSO. Cells were incubated with test compounds for 2 h, washed, and lysed in Bio-Plex whole cell lysis buffer A. Samples are diluted with buffer B 1:1 (v/v) and directly transferred to assay plate or frozen at −80 C degrees until processed. 50 μL of diluted MDA-MB-231 cell lysates were incubated with about 2000 of 5 micron Bio-Plex beads conjugated with an anti-ERK1/2 antibody overnight on a shaker at room temperature. The next day, biotinylated phospho-ERK1/2 sandwich immunoassay was performed, beads are washed 3 times during each incubation and then 50 μL of PE-strepavidin was used as a developing reagent. The relative fluorescence units of pERK1/2 were detected by counting 25 beads with Bio-Plex flow cell (probe) at high sensitivity. The IC50 was calculated by taking untreated cells as maximum and no cells (beads only) as background.
melting point [°C],Structure (SMILES),further results
210 to 213,"CNC(=O)c1cc(Oc2ccc(NC(=O)Nc3cc(C(F)(F)F)ccc3OC)c(C)c2)ccn1 [Entry 16, {4-[4-({N-[2-methoxy-5-(trifluoromethyl)phenyl]carbamoyl}amino)-3-methylphenoxy](2-pyridyl)}-N-methylcarboxamide]",
244 to 245,"CNC(=O)c1cc(Oc2ccc(NC(=O)Nc3cc(C(F)(F)F)c(Cl)cc3OC)c(Cl)c2)ccn1 [Entry 96, N-[4-chloro-2-methoxy-5-(trifluoromethyl)phenyl]({2-chloro-4-[2-(N-methylcarbamoyl)(4-pyridyloxy)]phenyl}amino)carboxamide]",
194 to 196,"CCNC(=O)c1cc(Oc2ccc(NC(=O)Nc3cc(C(F)(F)F)ccc3OC)cc2)ccn1 [Entry 19, ({4-[2-(N-ethylcarbamoyl)(4-pyridyloxy)]phenyl}amino)-N-[2-methoxy-5-(trifluoromethyl)phenyl]carboxamide]",
147 to 151,"CNC(=O)c1cc(Oc2ccc(NC(=O)Nc3ccc(Cl)c(C(F)(F)F)c3)c(Cl)c2)ccn1 [Entry 49, {4-[3-chloro-4-({[4-chloro-3-(trifluoromethyl)phenyl]amino}carbonylamino)phenoxy](2-pyridyl)}-N-methylcarboxamide]",
180 to 181,"CCNC(=O)c1cc(Oc2ccc(NC(=O)Nc3cc(C(F)(F)F)c(Cl)cc3OC)cc2)ccn1 [Entry 99, N-[4-chloro-2-methoxy-5-(trifluoromethyl)phenyl]({4-[2-(N-ethylcarbamoyl)(4-pyridyloxy)]phenyl}amino)carboxamide]",
183 to 184,"CCNC(=O)c1cc(Oc2ccc(NC(=O)Nc3ccc(Br)c(C(F)(F)F)c3)cc2)ccn1 [Entry 88, N-[4-bromo-3-(trifluoromethyl)phenyl]({4-[2-(N-ethylcarbamoyl)(4-pyridyloxy)]phenyl}amino)carboxamide]",
187 to 188,"CNC(=O)c1cc(Oc2ccc(NC(=O)Nc3cc(C(F)(F)F)ccc3OC)c(Cl)c2)ccn1 [Entry 17, ({2-chloro-4-[2-(N-methylcarbamoyl)(4-pyridyloxy)]phenyl}amino)-N-[2-methoxy-5-(trifluoromethyl)phenyl]carboxamide]",
140 to 144,"CNC(=O)c1cc(Oc2ccc(NC(=O)Nc3cc(C(F)(F)F)c(Cl)cc3OC)cc2)ccn1 [Entry 95, N-[4-chloro-2-methoxy-5-(trifluoromethyl)phenyl]({4-[2-(N-methylcarbamoyl)(4-pyridyloxy)]phenyl}amino)carboxamide]",
187 to 189,"CCNC(=O)c1cc(Oc2ccc(NC(=O)Nc3ccc(Cl)c(C(F)(F)F)c3)cc2)ccn1 [Entry 51, N-[4-chloro-3-(trifluoromethyl)phenyl]({4-[2-(N-ethylcarbamoyl)(4-pyridyloxy)]phenyl}amino)carboxamide]",
220 to 221,"CNC(=O)c1cc(Oc2ccc(NC(=O)Nc3cc(C(F)(F)F)c(Cl)cc3OC)cc2Cl)ccn1 [Entry 97, N-[4-chloro-2-methoxy-5-(trifluoromethyl)phenyl]({3-chloro-4-[2-(N-methylcarbamoyl)(4-pyridyloxy)]phenyl}amino)carboxamide]",
218 to 219,"CNC(=O)c1cc(Sc2ccc(NC(=O)Nc3cc(C(F)(F)F)ccc3OC)cc2)ccn1 [Entry 27, N-[2-methoxy-5-(trifluoromethyl)phenyl]({4-[2-(N-methylcarbamoyl)(4-pyridylthio)]phenyl}amino)carboxamide]",
,CNC(=O)c1cc(Oc2ccc(NC(=O)Nc3ccc(Cl)c(C(F)(F)F)c3)cc2)ccn1 [N-[4-chloro-3-(trifluoromethyl)phenyl]-N′-{4-[2-N-methylcarbamoyl-4-pyridyloxy]phenyl}urea],growth of NCI-H460 tumors inhibited ([1]; 10 mg/kg/dose): 27%; growth of NCI-H460 tumors inhibited ([1]; 30 mg/kg/dose): 56%; IC50 [2]: 880 nM; IC50 (nM) (HER2 Receptor): INACTIVE; IC50 (c-KIT phosphor-AKT): 402 nM; percent of nuclei expressing pERK in the post-treatment biopsy (phospho-ERK): decrease; growth of MIA PaCa-2 tumors inhibited ([3]; 10 mg/kg/dose): 44%; growth of MIA PaCa-2 tumors inhibited ([3]; 30 mg/kg/dose): 66%; growth of MIA PaCa-2 tumors inhibited ([3]; 100 mg/kg/dose): 73%; PET scan metabolic activity after treatment (melanoma; baseline vs. second cycle): completely silent; CT scan measurements by RECIST (melanoma; through cycle 6 of treatment): stable disease; IC50 [4]: 80 nM
217 to 219,"CNC(=O)c1cc(Oc2ccc(NC(=O)Nc3ccc(Br)c(C(F)(F)F)c3)cc2Cl)ccn1 [Entry 87, {4-[4-({[4-bromo-3-(trifluoromethyl)phenyl]amino}carbonylamino)-2-chlorophenoxy](2-pyridyl)}-N-methylcarboxamide]",
214 to 216,"CNC(=O)c1cc(Oc2ccc(NC(=O)Nc3cc(C(F)(F)F)ccc3OC)cc2Cl)ccn1 [Entry 20, ({3-chloro-4-[2-(N-methylcarbamoyl)(4-pyridyloxy)]phenyl}amino)-N-[2-methoxy-5-(trifluoromethyl)phenyl]carboxamide]",
114 to 117,"COc1ccc(C(F)(F)F)cc1NC(=O)Nc1ccc(Oc2ccnc(C(N)=O)c2)cc1 [Entry 14, 4-[4-({N-[2-methoxy-5-(trifluoromethyl)phenyl]carbamoyl}amino)phenoxy]pyridine-2-carboxamide]",
